The numbers were not newly measured in EP0163237A2, “Di- and tri-peptidal renin inhibitors” (Merck & Co., Inc., priority 1984, dated 1985), which cites them from elsewhere.

Where a SMILES comes first, the peptide text is derived from it. [ ]: non-standard residue; d: D form. The star is where a group is joined. Sta = CC(C)C[C@H](N)[C@@H](O)CC(=O)O; Isovaleryl = CC(C)CC(=O)*

For the series, the system named is hog renin. To be noted: after the injection of hog renin into nephrectomized rats.

Consider `CC(C)CC(=O)N[C@H](C(=O)N[C@H](C(=O)N[C@@H](CC(C)C)[C@@H](O)CC(=O)N[C@@H](C)C(=O)N[C@@H](CC(C)C)[C@@H](O)CC(=O)O)C(C)C)C(C)C` [pepstatin] (Isovaleryl-VV[Sta]A[Sta]-OH), for which the “blood pressure in vivo” value is “reduce blood pressure”.
